# Where a name gives a salt, the structure may show the parent alone. Read-outs that look alike come from different tables or passages of the source.
# How the values were obtained:
# [1] = cited from earlier work
# KDM4 = settings: Table 9; read-out: Select KDM4; cited from earlier work
# KDM = settings: literature cell potency, KDM inhibitors; cited from earlier work
# KDM7 = settings: Table 9; read-out: Select KDM7; cited from earlier work
# KDM6 = settings: Table 9; read-out: Select KDM6; cited from earlier work
# KDM5 = settings: Table 9; read-out: Select KDM5; cited from earlier work
# [2] = test system: Lgr5 GFP+ cochlear progenitor cells; test: Lgr5+ Assay (Stem Cell Proliferation Assay); assay type: cell-based; settings: for Lgr5+ Assay: active concentration range
# DOT1L = DOT1L (Homo sapiens, UniProt Q8TEK3); settings: literature cell potency, DOT1L inhibitors; cited from earlier work
# GSK-3 alpha = GSK-3 alpha (Homo sapiens, UniProt P49840); settings: Table 2; cited from earlier work
# LSD1 = LSD1 (Homo sapiens, UniProt O60341); settings: literature cell potency, LSD1 inhibitors; cited from earlier work
# MAO = settings: cited from earlier work
# [3] = test system: Lgr5+ cochlear progenitor cells; test: Quantification of Lgr5+ cochlear progenitor cell proliferation, expansion and enrichment (3D Matrigel culture, Celigo imaging, GFP(+) cell area); assay type: cell-based, mouse
# KDM1b = target: T1, KDM1b (Homo sapiens, UniProt Q8NB78); settings: Table 1; read-out: Select KDM1b; cited from earlier work
# T1 sequence (Q8NB78 1-822): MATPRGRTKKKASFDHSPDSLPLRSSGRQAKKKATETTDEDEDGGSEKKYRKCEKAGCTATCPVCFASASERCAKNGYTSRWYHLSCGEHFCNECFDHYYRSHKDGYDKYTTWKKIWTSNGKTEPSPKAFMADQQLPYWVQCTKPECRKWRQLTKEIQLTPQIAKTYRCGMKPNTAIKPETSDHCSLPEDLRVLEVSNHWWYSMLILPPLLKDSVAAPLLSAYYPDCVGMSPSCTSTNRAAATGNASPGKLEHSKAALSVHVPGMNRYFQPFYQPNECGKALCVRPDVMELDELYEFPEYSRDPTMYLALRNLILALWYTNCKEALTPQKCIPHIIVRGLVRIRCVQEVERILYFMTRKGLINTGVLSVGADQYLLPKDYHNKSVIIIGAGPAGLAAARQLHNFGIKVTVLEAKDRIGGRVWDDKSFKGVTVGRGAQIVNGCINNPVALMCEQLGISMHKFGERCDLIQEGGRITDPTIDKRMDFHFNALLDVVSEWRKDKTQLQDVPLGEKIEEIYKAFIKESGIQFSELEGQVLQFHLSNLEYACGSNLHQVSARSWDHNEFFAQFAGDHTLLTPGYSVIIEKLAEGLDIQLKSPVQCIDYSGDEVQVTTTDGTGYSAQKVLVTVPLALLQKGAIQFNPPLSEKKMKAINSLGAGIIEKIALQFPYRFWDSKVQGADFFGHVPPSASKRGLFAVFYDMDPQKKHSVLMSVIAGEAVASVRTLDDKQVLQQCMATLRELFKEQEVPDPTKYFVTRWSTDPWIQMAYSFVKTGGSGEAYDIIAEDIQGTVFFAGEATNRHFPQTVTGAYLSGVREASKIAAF
# KDM1 = settings: Table 9, first KDM data cell; read-out: Select KDM1; cited from earlier work
# Chain of DOT1L (Q8TEK3 whole entry, species assumed): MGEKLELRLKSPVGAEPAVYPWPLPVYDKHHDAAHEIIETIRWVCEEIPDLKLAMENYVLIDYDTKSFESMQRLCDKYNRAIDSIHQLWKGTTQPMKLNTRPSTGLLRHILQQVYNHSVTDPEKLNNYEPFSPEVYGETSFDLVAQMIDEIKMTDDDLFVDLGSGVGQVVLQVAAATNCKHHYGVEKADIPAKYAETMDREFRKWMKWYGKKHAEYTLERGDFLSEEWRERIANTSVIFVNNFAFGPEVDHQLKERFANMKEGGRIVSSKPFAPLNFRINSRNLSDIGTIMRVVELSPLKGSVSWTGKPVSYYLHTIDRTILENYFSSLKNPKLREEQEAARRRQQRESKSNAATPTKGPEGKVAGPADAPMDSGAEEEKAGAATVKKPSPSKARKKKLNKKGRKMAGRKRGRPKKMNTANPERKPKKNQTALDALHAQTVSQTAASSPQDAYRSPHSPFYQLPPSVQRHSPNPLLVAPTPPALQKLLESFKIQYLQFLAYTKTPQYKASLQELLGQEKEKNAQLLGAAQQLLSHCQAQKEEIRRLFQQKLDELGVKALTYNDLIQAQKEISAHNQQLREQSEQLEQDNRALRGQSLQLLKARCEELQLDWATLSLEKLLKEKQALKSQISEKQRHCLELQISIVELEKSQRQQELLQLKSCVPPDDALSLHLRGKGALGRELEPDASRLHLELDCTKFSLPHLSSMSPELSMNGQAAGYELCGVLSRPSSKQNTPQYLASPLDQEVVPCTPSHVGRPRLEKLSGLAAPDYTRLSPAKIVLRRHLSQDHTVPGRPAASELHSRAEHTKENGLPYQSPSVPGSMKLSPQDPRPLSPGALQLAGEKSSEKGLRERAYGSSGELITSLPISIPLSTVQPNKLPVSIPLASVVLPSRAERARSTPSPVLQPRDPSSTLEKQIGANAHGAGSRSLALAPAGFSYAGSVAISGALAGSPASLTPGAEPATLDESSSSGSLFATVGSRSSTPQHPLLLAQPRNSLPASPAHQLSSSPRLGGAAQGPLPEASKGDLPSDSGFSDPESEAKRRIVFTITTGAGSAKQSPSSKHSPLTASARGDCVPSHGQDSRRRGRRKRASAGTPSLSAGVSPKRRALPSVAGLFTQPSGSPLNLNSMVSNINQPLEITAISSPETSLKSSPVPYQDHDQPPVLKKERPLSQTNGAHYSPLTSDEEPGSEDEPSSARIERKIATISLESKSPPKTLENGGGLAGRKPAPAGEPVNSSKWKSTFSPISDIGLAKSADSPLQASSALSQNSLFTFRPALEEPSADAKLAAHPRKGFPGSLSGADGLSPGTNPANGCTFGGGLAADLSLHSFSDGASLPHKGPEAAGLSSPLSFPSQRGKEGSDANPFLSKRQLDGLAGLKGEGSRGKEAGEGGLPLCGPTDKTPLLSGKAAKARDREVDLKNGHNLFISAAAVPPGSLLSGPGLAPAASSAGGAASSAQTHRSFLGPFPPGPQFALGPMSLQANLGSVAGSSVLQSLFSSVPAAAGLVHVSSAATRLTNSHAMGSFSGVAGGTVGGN
# Chain of GSK-3 alpha (P49840 whole entry): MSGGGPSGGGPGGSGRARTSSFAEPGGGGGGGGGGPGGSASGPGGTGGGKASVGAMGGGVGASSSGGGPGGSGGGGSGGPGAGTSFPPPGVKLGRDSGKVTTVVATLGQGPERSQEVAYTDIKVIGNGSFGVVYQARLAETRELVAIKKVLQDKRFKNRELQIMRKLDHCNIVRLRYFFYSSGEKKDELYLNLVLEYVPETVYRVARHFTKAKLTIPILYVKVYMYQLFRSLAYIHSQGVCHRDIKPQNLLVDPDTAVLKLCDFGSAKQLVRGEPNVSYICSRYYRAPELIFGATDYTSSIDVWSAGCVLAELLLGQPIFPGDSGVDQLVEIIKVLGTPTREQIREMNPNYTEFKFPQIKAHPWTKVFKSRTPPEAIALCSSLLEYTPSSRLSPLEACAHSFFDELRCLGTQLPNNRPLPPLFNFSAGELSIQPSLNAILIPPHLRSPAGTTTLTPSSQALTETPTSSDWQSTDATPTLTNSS
compound,measurement,setting,value
O=C(O)CCN(O)C(=O)CCCCCCCCC1CC1 [TC-E 5002],Human In Vivo Conc,[1]; KDM inhibitors,0.12 to 10 µM
same,IC50,KDM4,83000 nM
same,Lit Cell,KDM,16 to 40 µM
same,IC50,KDM7,200 nM
same,IC50,KDM6,> 100000 nM
same,IC50,KDM5,55000 nM
same,Lgr5 GFP(+) cell count,"[2]; FIG. 36A: 0.37 μM TC-E 5002 + 3 μM CHIR99021 + 1 mM VPA in EFI vs EFI-C, EFI-CV",enhances Lgr5 GFP+ progenitor cell proliferation
same,Lgr5+ Assay,[2]; KDM inhibitors,0.12 to 10 µM
CC(C)N(C[C@H]1O[C@@H](n2cnc3c(N)ncnc32)[C@H](O)[C@@H]1O)[C@H]1C[C@@H](CCc2nc3cc(C(C)(C)C)ccc3[nH]2)C1 [pinometostat],Human In Vivo Conc,[1]; DOT1L inhibitors,(1-10 uM) μM
same,Human In Vivo Conc: Total plasma Css,[1]; total plasma Css,800 to 1600 ng/mL
same,"Human In Vivo Conc: Total plasma Css (molar, in brackets)",[1]; total plasma Css,(1.42-2.94 uM)
same,Lit Cell,DOT1L,2.7 nM
Cc1ccc(C(=O)Nc2c[nH]nc2C(=O)NCCCOC(C)C)cn1 [GSK XX1I],Lgr5+ Assay,[2]; Wnt agonists (GSK3 inhibitors),0.2 to 1 µM
same,IC50,GSK-3 alpha,2.3 nM
NNCCc1ccccc1 [Phenelzine sulfate],Literat. Cell,LSD1,900 nM
same,Cmax,"[1]; human plasma Cmax, read-out: Human Plasma Conc. Cmax (molar, in brackets)",73 to 440 nM
same,MAO inhib in Cell,MAO,900 nM
N[C@H]1CC[C@H](N[C@@H]2C[C@H]2c2ccccc2)CC1 [ORY-1001],Literat. Cell,LSD1,0.5 to 3 nM
same,Human Plasma Conc.,"[1]; human plasma, LSD1 inhibitors",1 to 100 nM
same,Lgr5+ progenitor cell proliferation and enrichment,[3]; inhibitor 41 nM with CHIR99021 (4 μM) and VPA (1 mM),enhanced Lgr5+ progenitor cell proliferation and enrichment
same,proliferation or enrichment of cochlear progenitor cells,[3]; inhibitor alone,does not promote the proliferation or enrichment
same,IC50,KDM1b,> 100000 nM
same,Lgr5 GFP(+) cell area,"[2]; FIG. 6A: 0-30 μM ORY-1001 alone in EFI vs EFI-C, EFI-CV",does not proliferate
same,Lgr5 GFP(+) cell area percentage,"[2]; FIG. 6B: 0-30 μM ORY-1001 alone in EFI vs EFI-C, EFI-CV",does not enrich
same,Lgr5 GFP(+) cell area,[2]; FIG. 7A: 41 nM ORY-1001 + 4 uM CHIR99021 + 1 mM VPA in EFI vs CHIR+VPA,further enhances Lgr5 GFP+ progenitor cell proliferation
same,enrichment of Lgr5 GFP+ cells (y-axis: Lgr5 GFP(+) cell area),[2]; FIG. 7B: 41 nM ORY-1001 + 4 uM CHIR99021 + 1 mM VPA in EFI vs CHIR+VPA,further enhances enrichment
CCOC(=O)CCNc1cc(N2CCc3ccccc3CC2)nc(-c2ccccn2)n1 [GSK-J4],IC50,KDM6,28 nM
same,IC50,KDM5,170 nM
CN1CCN(C(=O)CN[C@@H]2C[C@H]2c2ccc(OCc3ccccc3)cc2)CC1 [Compound 1],IC50,KDM1,220 nM
same,IC50,KDM7,220 nM
same,IC50,KDM5,190 nM
